According to patent US20260132132A1, “3A,4,5,6-TETRAHYDRO-1 H-PYRAZOLO[3,4-C]PYRIDIN-7(7AH)-ONE DERIVATIVES AS FACTOR XIIA INHIBITORS” (KALVISTA PHARMACEUTICALS LIMITED, priority 2022, published 2026):
pIC50: −log10 of the molar value.

These molecules were tested against T1, Human Factor XIIa (hFXIIa) (Homo sapiens, UniProt P00748) (assay: Determination of Human Factor XIIa (hFXIIa) inhibition, fluorogenic substrate IC50 assay). Conditions: fluorogenic substrate H-DPro-Phe-Arg-AFC at Km, 25° C., read-out: Human FXIIa IC50.
T1 construct: purchased Enzyme Research Laboratories
T1 sequence (P00748 373-615 limits assumed): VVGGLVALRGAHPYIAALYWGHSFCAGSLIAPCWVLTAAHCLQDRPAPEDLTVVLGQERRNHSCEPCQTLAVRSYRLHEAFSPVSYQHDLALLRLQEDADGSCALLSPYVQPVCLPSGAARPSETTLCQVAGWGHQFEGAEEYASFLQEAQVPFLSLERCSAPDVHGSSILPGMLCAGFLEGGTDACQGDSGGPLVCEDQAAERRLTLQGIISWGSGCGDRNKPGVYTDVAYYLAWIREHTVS
T1 sequence (P00748 20-372 partner limits assumed): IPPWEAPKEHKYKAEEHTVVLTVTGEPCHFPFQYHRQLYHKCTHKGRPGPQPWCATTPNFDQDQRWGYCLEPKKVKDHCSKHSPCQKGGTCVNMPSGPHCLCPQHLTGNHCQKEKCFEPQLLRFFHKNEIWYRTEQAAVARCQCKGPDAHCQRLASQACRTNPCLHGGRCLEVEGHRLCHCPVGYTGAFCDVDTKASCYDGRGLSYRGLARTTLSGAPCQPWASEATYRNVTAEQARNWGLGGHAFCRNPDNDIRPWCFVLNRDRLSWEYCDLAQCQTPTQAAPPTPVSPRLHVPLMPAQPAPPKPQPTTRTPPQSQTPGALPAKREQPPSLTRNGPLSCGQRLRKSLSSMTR
Format: biochemical
Description: Determination of Human Factor XIIa (hFXIIa) inhibition
The Km for the cleavage of the substrate by hFXIIa was determined by standard transformation of the Michaelis-Menten equation, with subsequent inhibition assays performed at substrate Km concentration.

| Compound | pIC50 |
| --- | --- |
| Cc1cc(CNC(=O)c2nn(-c3cccc(Cl)c3)c3c2CCN(c2ccc4c(c2)N(C)C(=O)CCC4)C3=O)nn1C [Example 1241, 1-(3-chlorophenyl)-N-((1,5-dimethyl-1H-pyrazol-3-yl)methyl)-6-(1-methyl-2-oxo-2,3,4,5-tetrahydro-1H-benzo[b]azepin-8-yl)-7-oxo-4,5,6,7-tetrahydro-1H-pyrazolo[3,4-c]pyridine-3-carboxamide] | 5.52 to 6.00 |
| C[C@H](NC(=O)c1nn(-c2cccc(Cl)c2)c2c1CCN(c1ccc3c(c1)CN(CCO)CC3)C2=O)c1cccnc1 [Example 1131, (S)-1-(3-chlorophenyl)-6-(2-(2-hydroxyethyl)-1,2,3,4-tetrahydroisoquinolin-7-yl)-7-oxo-N-(1-(pyridin-3-yl)ethyl)-4,5,6,7-tetrahydro-1H-pyrazolo[3,4-c]pyridine-3-carboxamide] | 6.52 to 7.00 |
| Cc1cn(C)nc1CNC(=O)c1nn(-c2cccc(Cl)c2)c2c1CCN(c1cccc(CN3CCCCC3)c1)C2=O [Example 1178, 1-(3-chlorophenyl)-N-((1,4-dimethyl-1H-pyrazol-3-yl)methyl)-7-oxo-6-(3-(piperidin-1-ylmethyl)phenyl)-4,5,6,7-tetrahydro-1H-pyrazolo[3,4-c]pyridine-3-carboxamide] | 6.52 to 7.00 |
| COC(=O)CN1CCc2ccc(N3CCc4c(C(=O)NCC5CC5)nn(-c5cccc(Cl)c5)c4C3=O)cc2C1 [Example 1094, methyl 2-(7-(1-(3-chlorophenyl)-3-((cyclopropylmethyl)carbamoyl)-7-oxo-1,4,5,7-tetrahydro-6H-pyrazolo[3,4-c]pyridin-6-yl)-3,4-dihydroisoquinolin-2(1H)-yl)acetate] | 5.52 to 6.00 |
| CN1CCc2ccc(-n3cnc4c(C#N)nn(-c5cccc(Cl)c5)c4c3=O)cc2C1 [Example 3001, 1-(3-chlorophenyl)-6-(2-methyl-1,2,3,4-tetrahydroisoquinolin-7-yl)-7-oxo-6,7-dihydro-1H-pyrazolo[4,3-d]pyrimidine-3-carbonitrile] | 6.00 to 6.52 |
| CCOC(=O)c1nn(-c2cccc(Cl)c2)c2c1CCN(c1cccc(N3CCCC3=O)c1)C2=O [Example 1323, ethyl 1-(3-chlorophenyl)-7-oxo-6-(3-(2-oxopyrrolidin-1-yl)phenyl)-4,5,6,7-tetrahydro-1H-pyrazolo[3,4-c]pyridine-3-carboxylate] | 5.52 to 6.00 |
| O=C(NCc1ccccc1)c1nn(-c2cccc(Cl)c2)c2c1CCN(c1ccc3c(c1)CN(CC1CCCC1)CC3)C2=O [Example 1020, N-benzyl-1-(3-chlorophenyl)-6-(2-(cyclopentylmethyl)-1,2,3,4-tetrahydroisoquinolin-7-yl)-7-oxo-4,5,6,7-tetrahydro-1H-pyrazolo[3,4-c]pyridine-3-carboxamide] | 6.00 to 6.52 |
| O=C(NCC1CC1)c1nn(-c2cccc(Cl)c2)c2c1CCN(c1ccc3c(c1)CN(C1CCC1)CC3)C2=O [Example 1103, 1-(3-chlorophenyl)-6-(2-cyclobutyl-1,2,3,4-tetrahydroisoquinolin-7-yl)-N-(cyclopropylmethyl)-7-oxo-4,5,6,7-tetrahydro-1H-pyrazolo[3,4-c]pyridine-3-carboxamide] | 6.52 to 7.00 |
| CC1CCCN1Cc1cccc(N2CCc3c(C(=O)NCc4ccccc4)nn(-c4cccc(Cl)c4)c3C2=O)c1 (stereo not shown) [Example 1039, N-benzyl-1-(3-chlorophenyl)-6-(3-((2-methylpyrrolidin-1-yl)methyl)phenyl)-7-oxo-4,5,6,7-tetrahydro-1H-pyrazolo[3,4-c]pyridine-3-carboxamide] | 6.00 to 6.52 |
| COc1cnccc1CNC(=O)c1nn(-c2cccc(Cl)c2)c2c1CCN(c1ccc3c(c1)CN(CCO)CC3)C2=O [Example 1172, 1-(3-chlorophenyl)-6-(2-(2-hydroxyethyl)-1,2,3,4-tetrahydroisoquinolin-7-yl)-N-((3-methoxypyridin-4-yl)methyl)-7-oxo-4,5,6,7-tetrahydro-1H-pyrazolo[3,4-c]pyridine-3-carboxamide] | 7.00 to 8.00 |
| O=C(NCC1CC1)c1nn(-c2cccc(Cl)c2)c2c1CCN(c1ccc3c(c1)CN(CC1CC1(F)F)CC3)C2=O (stereo not shown) [Example 1097, 1-(3-chlorophenyl)-N-(cyclopropylmethyl)-6-(2-((2,2-difluorocyclopropyl)methyl)-1,2,3,4-tetrahydroisoquinolin-7-yl)-7-oxo-4,5,6,7-tetrahydro-1H-pyrazolo[3,4-c]pyridine-3-carboxamide] | 5.52 to 6.00 |
| O=C(NCC1CC1)c1nn(-c2cccc(Cl)c2)c2c1CCN(c1cccc(CN3CCC(F)C3)c1)C2=O (stereo not shown) [Example 1243, 1-(3-chlorophenyl)-N-(cyclopropylmethyl)-6-(3-((3-fluoropyrrolidin-1-yl)methyl)phenyl)-7-oxo-4,5,6,7-tetrahydro-1H-pyrazolo[3,4-c]pyridine-3-carboxamide] | 5.52 to 6.00 |
| CN1CCc2ccc(N3CCc4c(C(=O)N[C@@H](CO)c5ccccc5)nn(-c5cccc(Cl)c5)c4C3=O)cc2C1 [Example 1063, (R)-1-(3-chlorophenyl)-N-(2-hydroxy-1-phenylethyl)-6-(2-methyl-1,2,3,4-tetrahydroisoquinolin-7-yl)-7-oxo-4,5,6,7-tetrahydro-1H-pyrazolo[3,4-c]pyridine-3-carboxamide] | 6.52 to 7.00 |
| CN1CCc2ncc(N3CCc4c(C(=O)NCC5CC5)nn(-c5cccc(Cl)c5)c4C3=O)cc2C1 [Example 1040, 1-(3-Chlorophenyl)-N-(cyclopropylmethyl)-6-(6-methyl-5,6,7,8-tetrahydro-1,6-naphthyridin-3-yl)-7-oxo-4,5,6,7-tetrahydro-1H-pyrazolo[3,4-c]pyridine-3-carboxamide] | 5.52 to 6.00 |
| Cc1cc(CNC(=O)c2nn(-c3cccc(Cl)c3)c3c2CCN(c2ccc4c(c2)N(C)C(=O)C4(C)C)C3=O)nn1C [Example 1276, 1-(3-chlorophenyl)-N-((1,5-dimethyl-1H-pyrazol-3-yl)methyl)-7-oxo-6-(1,3,3-trimethyl-2-oxoindolin-6-yl)-4,5,6,7-tetrahydro-1H-pyrazolo[3,4-c]pyridine-3-carboxamide] | 5.00 to 5.52 |
| CCNC(=O)c1nn(-c2cccc(Cl)c2)c2c1CCN(c1cccc(N3C(=O)C[C@H]4C[C@H]43)c1)C2=O (single isomer, unassigned) [Example 1407, 1-(3-Chlorophenyl)-N-ethyl-7-oxo-6-(3-((1R*,5R*)-3-oxo-2-azabicyclo[3.1.0]hexan-2-yl)phenyl)-4,5,6,7-tetrahydro-1H-pyrazolo[3,4-c]pyridine-3-carboxamide] | 4.40 to 5.00 |
| O=C(NCC1CC1)c1nn(-c2cccc(Cl)c2)c2c1CCN(c1ccc3c(c1)C(=O)N(CC1CCCO1)CC3)C2=O (stereo not shown) [Example 1292, 1-(3-chlorophenyl)-N-(cyclopropylmethyl)-7-oxo-6-(1-oxo-2-((tetrahydrofuran-2-yl)methyl)-1,2,3,4-tetrahydroisoquinolin-7-yl)-4,5,6,7-tetrahydro-1H-pyrazolo[3,4-c]pyridine-3-carboxamide] | 6.00 to 6.52 |
| COc1ccc(CNC(=O)c2nn(-c3cccc(Cl)c3)c3c2CCN(c2cccc(CN4CCCCC4)c2)C3=O)cn1 [Example 1173, 1-(3-chlorophenyl)-N-((6-methoxypyridin-3-yl)methyl)-7-oxo-6-(3-(piperidin-1-ylmethyl)phenyl)-4,5,6,7-tetrahydro-1H-pyrazolo[3,4-c]pyridine-3-carboxamide] | 6.52 to 7.00 |
| CN1CCc2ccc(N3CCc4c(C(=O)NCC56CC(CO)(CCO5)C6)nn(-c5cccc(Cl)c5)c4C3=O)cc2C1 [Example 1046, 1-(3-chlorophenyl)-N-((5-(hydroxymethyl)-2-oxabicyclo[3.1.1]heptan-1-yl)methyl)-6-(2-methyl-1,2,3,4-tetrahydroisoquinolin-7-yl)-7-oxo-4,5,6,7-tetrahydro-1H-pyrazolo[3,4-c]pyridine-3-carboxamide] | 6.00 to 6.52 |
| CCNC(=O)c1nn(-c2ccc(C)cc2F)c2c1CCN(c1ccc3c(c1)C(=O)N(C)CC3)C2=O [Example 2034, N-ethyl-1-(2-fluoro-4-methylphenyl)-6-(2-methyl-1-oxo-1,2,3,4-tetrahydroisoquinolin-7-yl)-7-oxo-4,5,6,7-tetrahydro-1H-pyrazolo[3,4-c]pyridine-3-carboxamide] | 4.40 to 5.00 |
| CN1CCc2ccc(N3CCc4c(C(=O)N[C@H](CO)c5ccccc5)nn(-c5cccc(Cl)c5F)c4C3=O)cc2C1 [Example 2001, (S)-1-(3-chloro-2-fluorophenyl)-N-(2-hydroxy-1-phenylethyl)-6-(2-methyl-1,2,3,4-tetrahydroisoquinolin-7-yl)-7-oxo-4,5,6,7-tetrahydro-1H-pyrazolo[3,4-c]pyridine-3-carboxamide] | 7.00 to 8.00 |
| N#CCN1CCc2ccc(N3CCc4c(C(=O)NCC5CC5)nn(-c5cccc(Cl)c5)c4C3=O)cc2C1 [Example 1100, 1-(3-chlorophenyl)-6-(2-(cyanomethyl)-1,2,3,4-tetrahydroisoquinolin-7-yl)-N-(cyclopropylmethyl)-7-oxo-4,5,6,7-tetrahydro-1H-pyrazolo[3,4-c]pyridine-3-carboxamide] | 5.52 to 6.00 |
